Data on 1 compound can be found in patent US11903957B2, “Composition for preventing, ameliorating, or treating sleep disturbance comprising flavonoid compound as effective component” (KOREA INSTITUTE OF ORIENTAL MEDICINE, priority 2018, dated 2024).

SMILES strings stand for the structures.

One test has as its system cholecystokinin. Kind of test: mRNA expression level of cholecystokinin in cerebral cortex (real-time PCR), caffeine-induced sleep disturbance. It counts as in vivo, mouse. To be noted: 30 mg/kg saponarin or 200 mg/kg St. John's wort orally for 14 days, caffeine i.p.; cortex obtained on Day 15; compared to control; FIG. 5B. The protocol:
(§1) 30 mg/kg saponarin (Sigma-Aldrich, St. Louis, Mo., USA; dissolved in 0.5% CMC solution) and 200 mg/kg St. John's wort (dissolved in 0.5% CMC solution) were aliquoted to satisfy the administration amount and orally administered one hour before the caffeine administration. To the normal and stress control, 0.5% CMC solution was orally administered while 30 mg/kg saponarin was administered to the saponarin group and 200 mg/kg St. John's wort was administered to the positive control, in an amount of 0.1 ml for each.
(§2) Nine-week old male C57BL/6 mouse with bodyweight of 20 to 22 g was obtained from DBL Co., Ltd. (Eumseong-Gun, Chungcheong-Bukdo, Korea). […]
(§3) Expression pattern of the gene in cerebral cortex, which has been removed from each test animal upon the completion of the test, was determined by real-time PCR. The cerebral cortex tissues of a mouse were treated with RNAzolB (Tel-Test) to extract RNA, and then analyzed by cDNA and real-time PCR instrument using One-step SYBR Green PCR kit (AB science).
(§4) The cerebral cortex tissues were added with 500 μl of RNAzol(B), disrupted using a homogenizer, and then added with 50 μl of chloroform (CHCl3) followed by mixing again for 15 seconds. […] Real time quantitative PCR was carried out by using Applied Biosystems 7500 Real-Time PCR system (Applied Biosystems, USA). […]
Background: Real-time PCR tracks product formation cycle by cycle.

For test [1], the system named is SD rat induced to have sleep disturbance by stress. The experiment in a line: Electroencephalography (EEG) measurement in animal model with sleep disturbance induced by stress. The conditions noted are these: foot pad electric shock stress for 5 days, compared to stress control. It counts as in vivo. The protocol:
The saponarin administration group was administered orally with 0.1 ml of saponarin, 30 minutes before the stress application. The normal and stress control were administered orally with 0.1 ml of a solvent. Operation was carried out for four divided groups, i.e., normal, control, saponarin, and positive control (St. John's wort), and total 24 animals were used, i.e., 6 animals per group.
A male rat (7 week old) was suitably fed with solid feed and water till the test day. After the acclimation for 1 week in an environment in which temperature of 23 to 25° C., humidity of 45 to 60%, and illuminance of 200 to 300 LUX, and 12 hour light and dark cycle are maintained, the animals were subjected to the test. For the operation, a 7-week old Sprague Dawley (SD) rat was anesthetized by intraperitoneal injection of 40 mg/kg pentobarbital, and then placed and fixed on a stereotaxic instrument (Stoelting CO, USA) such that the bregma and lambda are in horizontal alignment. After suppressing subgaleal bleeding, hairs were shaved and the skull was exposed by excising the scalp and removing the periosteum. Based on the anatomy drawing by Paxinos & Watson, a hole was created by using drill, an electrode was inserted to reach the dura mater, and an electrode composed of two silver wires was inserted to neck muscle to record an electromyogram. On top of the cranial bone of cerebellum, pins attached with an electrode for recording an electroencephalogram and an electrode for recording an electromyogram were placed and fixed on top of the cranial bone by applying dental cement. […]
After the stress for 5 days, the rat was orally administered with each pharmaceutical, and, after 30 minutes, EEG recording was carried out in a light-blocking acrylic cylinder (PM 8:00 to AM 8:00). The wake time and sleep (REM and NonREM) time were recorded by using SleepSign Ver. […]
After 30 minutes, foot pad electric shock was applied to the SD rats to induce for 5 days sleep disturbance caused by stress. Wake time was then measured for each rat.

In another test the test system is GABA A α1 receptor. The experiment in a line: mRNA expression level of GABA A α1 receptor in cerebral cortex (real-time PCR), caffeine-induced sleep disturbance. The class given is in vivo, mouse. The conditions noted are these: 30 mg/kg saponarin or 200 mg/kg St. John's wort orally for 14 days, caffeine i.p.; cortex obtained on Day 15; compared to control; FIG. 6, p<0.01. On the procedure: as §1, §2, §3, §4

The test system of a further test is neuropeptide Y. Kind of test: mRNA expression level of neuropeptide Y in cerebral cortex (real-time PCR), caffeine-induced sleep disturbance. The class given is in vivo, mouse. The conditions noted are these: 30 mg/kg saponarin or 200 mg/kg St. John's wort orally for 14 days, caffeine i.p.; cortex obtained on Day 15; compared to control; FIG. 5A. On the procedure: as §1, §2, §3, §4

Test [2] deals with C57BL/6 mouse induced to have sleep disturbance by caffeine. The experiment in a line: Open field test in animal model with sleep disturbance induced by caffeine. The class given is in vivo. To be noted: 30 mg/kg saponarin or 200 mg/kg St. John's wort orally for 14 days, compared to control. On the procedure:
as §1
Nine-week old male C57BL/6 mouse with bodyweight of 20 to 22 g was obtained from DBL Co., Ltd. (Eumseong-Gun, Chungcheong-Bukdo, Korea). The animal was supplied with a sufficient amount of water and solid feed (not added with any antibiotics, Samyang Animal Feed Co.) till the test day, and it was used for the experiment after acclimation for 1 week under an environment with temperature of 22±2° C., humidity of 55±15%, and 12-hour light and dark cycle. The experiment was carried out as illustrated in FIG. 1. Chemicals were orally administered every day for 14 days in total, and, according to intraperitoneal administration of 10 mg/kg caffeine 1 hour thereafter, sleep disturbance was induced.
Open field test is to determine sleep disturbance and amelioration level obtained by pharmaceutical in which the determination is made by measuring the voluntary movement of a mouse after entering an unfamiliar field for the first time. A mouse was placed at the center (30×30×30 cm) of a white box, which is made of white acryl, and then travel distance (total distance moved), mobility time, mobility frequency and immobility time for 1 hour were analyzed by using Video tracking software (Ethovision XT, Noldus, Nederland).
The saponarin administration group was orally administered with 30 mg/kg saponarin. After one hour, the animal was intraperitoneally administered with 10 mg/kg caffeine to induce sleep disturbance caused by caffeine for 14 days. Then, travel distance of the mouse was measured.
Then, the mobility time and mobility frequency were measured.
Thereafter, the immobility time of mouse was measured.

On to `O=c1cc(-c2ccc(O)cc2)oc2cc(O[C@@H]3O[C@H](CO)[C@@H](O)[C@H](O)[C@H]3O)c([C@@H]3O[C@H](CO)[C@@H](O)[C@H](O)[C@H]3O)c(O)c12` [saponarin, (1S)-1,5-anhydro-1-[7-(beta-D-glucopyranosyloxy)-5-hydroxy-2-(4-hydroxyphenyl)-4-oxo-4H-chromen-6-yl]-D-glucitol], for which the “mRNA expression of cholecystokinin in cerebral cortex” value in the test on cholecystokinin is recorded as “show increased expression or tend to show increased expression in statistically significant sense”. Also, in test [1] (30 mg/kg saponarin or 200 mg/kg St. John's wort orally, FIG. 8, p<0.05), the “wake time during sleep by EEG” value is “decreased in significant sense”. For the same compound, in test [1] (30 mg/kg saponarin orally, FIG. 9), the “REM sleep time by EEG” value was “tends to increase”. Besides, the “NonREM sleep time by EEG” value in test [1] (30 mg/kg saponarin orally, FIG. 10) is reported as “tends to increase”. Moreover, the “mRNA expression of GABA A α1 receptor in cerebral cortex” value in the test with GABA A α1 receptor is recorded as “increased mRNA expression of GABA A α1 receptor in significant sense”. In addition, the “mRNA expression of neuropeptide Y in cerebral cortex” value in the test with neuropeptide Y is on record as “show increased expression or tend to show increased expression in statistically significant sense”. Besides, the “travel distance (total distance moved), open field test” value in test [2] (10 mg/kg caffeine i.p. 1 hour later, FIG. 2, p<0.05) is on record as “decreased in significant sense”. Besides, the “mobility time, open field test” value in test [2] (10 mg/kg caffeine i.p., FIG. 3A, p<0.01) is reported as “decreased in significant sense”. Moreover, the “mobility frequency, open field test” value in test [2] (10 mg/kg caffeine i.p., FIG. 3B, p<0.01) is recorded as “decreased in significant sense”. The “immobility time, open field test” value in test [2] (10 mg/kg caffeine i.p., FIG. 4) was “increased”.
